Results as given in ChEMBL document CHEMBL4007388, “Synthesis and antiproliferative activity of monocationic arylthiophene derivatives” (Eur J Med Chem, 2017).

Legend:
CCRF-CEM = test: Growth inhibition of human CCRF-CEM cells incubated for 48 hrs by sulforhodamine B assay; assay type: functional
HL-60(TB) = test: Growth inhibition of human HL-60(TB) cells incubated for 48 hrs by sulforhodamine B assay; assay type: functional; details: HL-60, 48 h
RPMI-8226 = test: Growth inhibition of human RPMI8226 cells incubated for 48 hrs by sulforhodamine B assay; assay type: functional; details: RPMI-8226, 48 h
SR = test: Growth inhibition of human SR cells incubated for 48 hrs by sulforhodamine B assay; assay type: functional
HOP-62 = test: Growth inhibition of human HOP62 cells incubated for 48 hrs by sulforhodamine B assay; assay type: functional; details: HOP-62, 48 h
HOP-92 = test: Growth inhibition of human HOP92 cells incubated for 48 hrs by sulforhodamine B assay; assay type: functional; details: HOP-92, 48 h
NCI-H226 = test: Growth inhibition of human NCI-H226 cells incubated for 48 hrs by sulforhodamine B assay; assay type: functional; details: NCI-H226, 48 h
NCI-H23 = test: Growth inhibition of human NCI-H23 cells incubated for 48 hrs by sulforhodamine B assay; assay type: functional; details: NCI-H23, 48 h
NCI-H460 = test: Growth inhibition of human NCI-H460 cells incubated for 48 hrs by sulforhodamine B assay; assay type: functional; details: NCI-H460, 48 h
NCI-H522 = test: Growth inhibition of human NCI-H522 cells incubated for 48 hrs by sulforhodamine B assay; assay type: functional; details: NCI-H522, 48 h
COLO 205 = test: Growth inhibition of human COLO205 cells incubated for 48 hrs by sulforhodamine B assay; assay type: functional; details: COLO 205, 48 h
HCC 2998 = test: Growth inhibition of human HCC2998 cells incubated for 48 hrs by sulforhodamine B assay; assay type: functional; details: HCC 2998, 48 h
HCT-116 = test: Growth inhibition of human HCT116 cells incubated for 48 hrs by sulforhodamine B assay; assay type: functional; details: HCT-116, 48 h
HCT-15 = test: Growth inhibition of human HCT15 cells incubated for 48 hrs by sulforhodamine B assay; assay type: functional; details: HCT-15, 48 h
HT-29 = test: Growth inhibition of human HT-29 cells incubated for 48 hrs by sulforhodamine B assay; assay type: functional; details: HT-29, 48 h
KM12 = test: Growth inhibition of human KM12 cells incubated for 48 hrs by sulforhodamine B assay; assay type: functional; details: KM12, 48 h
SW-620 = test: Growth inhibition of human SW620 cells incubated for 48 hrs by sulforhodamine B assay; assay type: functional; details: SW-620, 48 h
SF-539 = test: Growth inhibition of human SF539 cells incubated for 48 hrs by sulforhodamine B assay; assay type: functional; details: SF-539, 48 h
SNB-19 = test: Growth inhibition of human SNB19 cells incubated for 48 hrs by sulforhodamine B assay; assay type: functional; details: SNB-19, 48 h
SNB-75 = test: Growth inhibition of human SNB75 cells incubated for 48 hrs by sulforhodamine B assay; assay type: functional; details: SNB-75, 48 h
U-251 = test: Growth inhibition of human U251 cells incubated for 48 hrs by sulforhodamine B assay; assay type: functional; details: U-251, 48 h
Malme-3M = test: Growth inhibition of human MALME-3M cells incubated for 48 hrs by sulforhodamine B assay; assay type: functional
SK-MEL-2 = test: Growth inhibition of human SK-MEL-2 cells incubated for 48 hrs by sulforhodamine B assay; assay type: functional; details: SK-MEL-2, 48 h
SK-MEL-28 = test: Growth inhibition of human SK-MEL-28 cells incubated for 48 hrs by sulforhodamine B assay; assay type: functional; details: SK-MEL-28, 48 h
SK-MEL-5 = test: Growth inhibition of human SK-MEL-5 cells incubated for 48 hrs by sulforhodamine B assay; assay type: functional; details: SK-MEL-5, 48 h
UACC-257 = test: Growth inhibition of human UACC257 cells incubated for 48 hrs by sulforhodamine B assay; assay type: functional; details: UACC-257, 48 h
UACC-62 = test: Growth inhibition of human UACC62 cells incubated for 48 hrs by sulforhodamine B assay; assay type: functional; details: UACC-62, 48 h
IGROV-1 = test: Growth inhibition of human IGROV1 cells incubated for 48 hrs by sulforhodamine B assay; assay type: functional; details: IGROV-1, 48 h
OVCAR-3 = test: Growth inhibition of human OVCAR3 cells incubated for 48 hrs by sulforhodamine B assay; assay type: functional; details: OVCAR-3, 48 h
OVCAR-8 = test: Growth inhibition of human OVCAR8 cells incubated for 48 hrs by sulforhodamine B assay; assay type: functional; details: OVCAR-8, 48 h
NCI/ADR-RES = test: Growth inhibition of human NCI/ADR-RES cells incubated for 48 hrs by sulforhodamine B assay; assay type: functional
SK-OV-3 = test: Growth inhibition of human SKOV3 cells incubated for 48 hrs by sulforhodamine B assay; assay type: functional; details: SK-OV-3, 48 h
A498 = test: Growth inhibition of human A498 cells incubated for 48 hrs by sulforhodamine B assay; assay type: functional; details: A498, 48 h
ACHN = test: Growth inhibition of human ACHN cells incubated for 48 hrs by sulforhodamine B assay; assay type: functional
CAKI-1 = test: Growth inhibition of human Caki1 cells incubated for 48 hrs by sulforhodamine B assay; assay type: functional; details: CAKI-1, 48 h
RXF 393 = test: Growth inhibition of human RXF393 cells incubated for 48 hrs by sulforhodamine B assay; assay type: functional; details: RXF 393, 48 h
SN12C = test: Growth inhibition of human SN12C cells incubated for 48 hrs by sulforhodamine B assay; assay type: functional
TK-10 = test: Growth inhibition of human TK10 cells incubated for 48 hrs by sulforhodamine B assay; assay type: functional; details: TK-10, 48 h
UO-31 = test: Growth inhibition of human UO31 cells incubated for 48 hrs by sulforhodamine B assay; assay type: functional; details: UO-31, 48 h
DU-145 = test: Growth inhibition of human DU145 cells incubated for 48 hrs by sulforhodamine B assay; assay type: functional; details: DU-145, 48 h
Hs-578T = test: Growth inhibition of human Hs 578T cells incubated for 48 hrs by sulforhodamine B assay; assay type: functional
BT-549 = test: Growth inhibition of human BT549 cells incubated for 48 hrs by sulforhodamine B assay; assay type: functional; details: BT-549, 48 h
MDA-MB-468 = test: Growth inhibition of human MDA-MB-468 cells incubated for 48 hrs by sulforhodamine B assay; assay type: functional; details: MDA-MB-468, 48 h
WI-38 = test: Cytotoxicity against human WI38 cells assessed as reduction in cell viability after 24 hrs by MTT assay; assay type: cell-based; details: WI-38, 24 h
WISH = test: Cytotoxicity against human WISH cells assessed as reduction in cell viability after 24 hrs by MTT assay; assay type: cell-based
[1] = Antioxidant activity assessed as superoxide dismutase-like activity by measuring inhibition of superoxide radical anion production at 2 uM by NBT reduction assay relative to control; assay type: functional
Escherichia coli = test: Induction of Escherichia coli genomic DNA cleavage after 1 hr by agarose gel electrophoresis method
Homo sapiens = species: Homo sapiens; test: Inhibition of PTK in human MCF7 cells at 1 uM preincubated for 2 hrs followed by poly-Glu-Tyr substrate addition by ELISA relative to control; assay type: cell-based

COc1ccc(-c2ccc(-c3ccc(C(=N)N)c(F)c3)s2)cc1
GI50 (CCRF-CEM): 3110 nM | GI50 (HL-60(TB)): 2190 nM | GI50 (RPMI-8226): 2510 nM | GI50 (SR): 3170 nM | GI50 (HOP-62): 10400 nM | GI50 (HOP-92): 1380 nM | GI50 (NCI-H226): 14400 nM | GI50 (NCI-H23): 11000 nM | GI50 (NCI-H460): 2430 nM | GI50 (NCI-H522): 3730 nM | GI50 (COLO 205): 1780 nM | GI50 (HCC 2998): 1850 nM | GI50 (HCT-116): 3040 nM | GI50 (HCT-15): 2580 nM | GI50 (HT-29): 2790 nM | GI50 (KM12): 3160 nM | GI50 (SW-620): 1920 nM | GI50 (SF-539): 8960 nM | GI50 (SNB-19): 9440 nM | GI50 (SNB-75): 10700 nM | GI50 (U-251): 2920 nM | GI50 (Malme-3M): 2150 nM | GI50 (SK-MEL-2): 2410 nM | GI50 (SK-MEL-28): 2310 nM | GI50 (SK-MEL-5): 2670 nM | GI50 (UACC-257): 1840 nM | GI50 (UACC-62): 1820 nM | GI50 (IGROV-1): 4380 nM | GI50 (OVCAR-3): 9770 nM | GI50 (OVCAR-8): 8220 nM | GI50 (NCI/ADR-RES): 10100 nM | GI50 (SK-OV-3): 9210 nM | GI50 (A498): 6580 nM | GI50 (ACHN): 4240 nM | GI50 (CAKI-1): 3940 nM | GI50 (RXF 393): 4680 nM | GI50 (SN12C): 5970 nM | GI50 (TK-10): 4330 nM | GI50 (UO-31): 3170 nM | GI50 (DU-145): 6250 nM | GI50 (Hs-578T): 4820 nM | GI50 (BT-549): 5900 nM | GI50 (MDA-MB-468): 1390 nM | IC50 (WI-38): 104000 nM | IC50 (WISH): 112000 nM | inhibition [1]: 55% | Activity (Escherichia coli): Dose-dependent effect | inhibition (Homo sapiens): 66%

N=C(N)c1ccc(-c2ccc(-c3ccc(Cl)cc3)s2)cc1
GI50 (CCRF-CEM): 200 nM | GI50 (HL-60(TB)): 214 nM | GI50 (RPMI-8226): 194 nM | GI50 (SR): 249 nM | GI50 (HOP-92): 156 nM | GI50 (NCI-H226): 451 nM | GI50 (NCI-H23): 190 nM | GI50 (NCI-H460): 193 nM | GI50 (NCI-H522): 186 nM | GI50 (COLO 205): 203 nM | GI50 (HCC 2998): 183 nM | GI50 (HCT-116): 170 nM | GI50 (HCT-15): 171 nM | GI50 (HT-29): 177 nM | GI50 (KM12): 196 nM | GI50 (SW-620): 177 nM | GI50 (SF-539): 171 nM | GI50 (SNB-19): 194 nM | GI50 (SNB-75): 157 nM | GI50 (U-251): 172 nM | GI50 (Malme-3M): 219 nM | GI50 (SK-MEL-2): 241 nM | GI50 (SK-MEL-28): 176 nM | GI50 (SK-MEL-5): 204 nM | GI50 (UACC-257): 310 nM | GI50 (UACC-62): 178 nM | GI50 (OVCAR-3): 194 nM | GI50 (OVCAR-8): 223 nM | GI50 (NCI/ADR-RES): 185 nM | GI50 (SK-OV-3): 246 nM | GI50 (A498): 191 nM | GI50 (ACHN): 180 nM | GI50 (CAKI-1): 167 nM | GI50 (RXF 393): 157 nM | GI50 (SN12C): 180 nM | GI50 (TK-10): 220 nM | GI50 (UO-31): 175 nM | GI50 (DU-145): 185 nM | GI50 (Hs-578T): 200 nM | GI50 (BT-549): 1730 nM | GI50 (MDA-MB-468): 173 nM | IC50 (WI-38): 131000 nM | IC50 (WISH): 146000 nM | inhibition [1]: 60.6% | Activity (Escherichia coli): Dose-dependent effect | inhibition (Homo sapiens): 98%

N=C(N)c1ccc(-c2ccc(-c3ccc(Cl)cc3)s2)cc1F
GI50 (CCRF-CEM): 194 nM | GI50 (HL-60(TB)): 212 nM | GI50 (RPMI-8226): 248 nM | GI50 (SR): 218 nM | GI50 (HOP-62): 1480 nM | GI50 (HOP-92): 589 nM | GI50 (NCI-H226): 2030 nM | GI50 (NCI-H23): 1150 nM | GI50 (NCI-H460): 207 nM | GI50 (NCI-H522): 194 nM | GI50 (COLO 205): 200 nM | GI50 (HCC 2998): 156 nM | GI50 (HCT-116): 171 nM | GI50 (HCT-15): 172 nM | GI50 (HT-29): 203 nM | GI50 (KM12): 226 nM | GI50 (SW-620): 186 nM | GI50 (SF-539): 206 nM | GI50 (SNB-19): 341 nM | GI50 (SNB-75): 165 nM | GI50 (U-251): 203 nM | GI50 (Malme-3M): 490 nM | GI50 (SK-MEL-2): 1500 nM | GI50 (SK-MEL-28): 205 nM | GI50 (SK-MEL-5): 1270 nM | GI50 (UACC-257): 1620 nM | GI50 (UACC-62): 218 nM | GI50 (IGROV-1): 611 nM | GI50 (OVCAR-3): 268 nM | GI50 (OVCAR-8): 983 nM | GI50 (NCI/ADR-RES): 361 nM | GI50 (SK-OV-3): 1140 nM | GI50 (A498): 1380 nM | GI50 (ACHN): 203 nM | GI50 (CAKI-1): 173 nM | GI50 (RXF 393): 187 nM | GI50 (SN12C): 517 nM | GI50 (TK-10): 1740 nM | GI50 (UO-31): 1720 nM | GI50 (DU-145): 430 nM | GI50 (Hs-578T): 726 nM | GI50 (BT-549): 1500 nM | GI50 (MDA-MB-468): 215 nM | IC50 (WI-38): 53100 nM | IC50 (WISH): 64200 nM | inhibition [1]: 59% | Activity (Escherichia coli): Dose-dependent effect | inhibition (Homo sapiens): 88%
